Results as given in US10654838B2, “Aminopyridine compounds useful as inhibitors of protein prenylation” (INSTITUT NATIONAL DE LA SANTE ET DE LA RECHERCHE MEDICALE …, priority 2014, dated 2020).

Legend:
[1] = system: HGPS MSCs; assay: ATP measurement (CellTiter Glo); format: cell-based, human; conditions: 48 h
Procedure: HGPS and control MSC were seeded in a 96 well plates (3917, Corning) (5000 cells/well) and treated with the different drugs. After 48 hours of treatment in unique dose, ATP content was measured using CellTiter Glo® (Promega) accordingly to the manufacturer recommendations. Luminescence was measured with an Analyst GT multimode plate reader (Molecular devices). In parallel, Hoechst 33342 stained nuclei were counted in each well thanks to an automated microscope. The results exploited are given in the ratio between ATP measurement and the number of nuclei counted.

[2] = system: HGPS MSCs; assay: Nuclear shape abnormalities (lamin A/C immunostaining); format: cell-based, human; conditions: 48 h, lamin A/C staining
Procedure: (§1) In the 4-steps protocol, cells were fixed in 4% paraformaldehyde (15 minutes, room temperature) before permeabilization and blocking in PBS supplemented with 0.1% triton X-100 and 1% BSA (Sigma-Aldrich, St. Louis, USA). Primary antibodies were incubated one hour at room temperature in blocking buffer. Antibodies included mouse anti-lamins A/C (clone JOL2, Millipore, Billerica, USA), rabbit anti-prelamin A (ANTOO45, Diatheva) and anti-Ki67 (clone Ki-S5, MAB4190, Millipore, Billerica, USA). Cells were stained with the species-specific fluorophore-conjugated secondary antibody (Invitrogen) (one hour, room temperature) and nuclei were visualized with Hoechst 33342.

[3] = system: lamin A and progerin mRNA expression; assay: Quantitative PCR of lamin A and progerin mRNA; format: cell-based, human; conditions: HGPS MSCs, 48 h, normalized on DMSO 0.1%
Procedure: Total RNA was isolated using RNeasy Mini extraction kit (Qiagen, Courtaboeuf, France) according to the manufacturer's protocol. An on-col DNase I digestion was performed to avoid genomic DNA amplification. RNA level and quality were checked using the Nanodrop technology. A total of 500 ng of RNA was used for reverse transcription using the Superscript III reverse transcription kit (Invitrogen). Q-PCR analysis was performed using a ABI 7900 system (Applied biosystem) and TaqMan gene expression Master Mix (Roche) following the manufacturer's instructions. Quantification of gene expression was based on the DeltaCt Method and normalized on 18S expression (Assay HS_99999901_S1). PCR primers were previously described by S. Rodriguez and colleagues (Rodriguez S et al., 2009, Eur J Hum Genet, VOL 17(7): 928-37). Primer sequences were lamin A (exons 11/12), 5′-[…]-3′ (SEQ N^o 1) and 5′-AGTTCTGGGGGCTCTGGGT-3′ (SEQ N^o 2); lamin C (exons 9/10), 5′-[…]-3′ (SEQ N^o 3) and 5′-CGGCGGCTACCACTCAC-3′ (SEQ ID N^o 4) and Progerin
(exons 11/12), 5′-ACTGCAGCAGCTCGGGG-3′ (SEQ N^o 5) and 5′-TCTGGGGGCTCTGGGC-3′ (SEQ ID N^o 6).
Taqman MGB probe sequences were lamin A (exon 11), 5′-ACTCGCAGCTACCG-3′ (SEQ N^o 7); lamin C (exon10), 5′-ATGCGCAAGCTGGTG-3′ (SEQ ID N^o 8) and Progerin (exon 11), 5′-CGCTGAGTACAACCT-3′ (SEQ ID N^o 9). […]

[4] = system: prelamin A; assay: Western immunoblotting of prelamin A; format: cell-based, human; conditions: HGPS MSCs, optimal concentration
Procedure: Whole-cell lysates of MSC were collected, separated by SDS-PAGE, and transferred onto PVPF membrane by liquid transfer method. Blots were blocked in 10% skim milk (Bio-Rad) in tween 0.1% tris-buffered saline (TTBS) 1× one hour at room temperature. The primary antibodies used were a mouse anti-lamins A/C 1:200 (Millipore, JOL2), a rabbit anti-prelamin A 1/100 (ANTOO45, Diatheva) and a β-actin 1/200000 (Sigma). Membranes were incubated during the night at 4° C. Antigen-antibody binding was detected using horseradish peroxidaseconjugated species-specific secondary antibodies (GE-Healthcare, Little Chalfont, UK) followed by enhanced chemiluminescence Western blotting detection reagents (Perkin-Elmer, Waltham, USA).

[5] = system: HGPS MSCs; assay: Cell proliferation (Ki-67 immunostaining); format: cell-based, human; conditions: 48 h
Procedure: as §1

[6] = system: HDJ2; assay: Western blot analysis of HDJ2 farnesylation; format: cell-based, human
[7] = system: HGPS MSCs; assay: Osteogenic differentiation (alkaline phosphatase activity); format: cell-based, human; conditions: 7 days of osteogenic differentiation
Procedure: MSC were seeded at 600 cells per well in 384 well plate in MSC culture medium and treated as previously described. After 72 hours, MSC medium was replaced by STEMPRO osteogenic induction medium (Invitrogen) in presence or not of the different drugs. After 7 days of treatment, cells were fixed with ethanol 95% and stained by adding either a colorimetric substrate of the alkaline phosphatase, the 5-Bromo-4-chloro-3-indolyl phosphate/Nitro blue tetrazolium (NBT) (Sigma-Aldrich) or a chromogenic substrate of this enzyme (absorbance at 405 nm), the p-Nitrophenyl Phosphate (pNPP) (Pierce Biotechnology).

[8] = biological target: T1, HMGCR (Homo sapiens, UniProt P04035); assay: HMGCR colorimetric activity assay; format: biochemical
T1 construct: oxidation of NADPH by the catalytic subunit of HMGCR in the presence of the substrate HMG CoA; purchased Sigma-Aldrich
T1 sequence (P04035 340-888 limits assumed): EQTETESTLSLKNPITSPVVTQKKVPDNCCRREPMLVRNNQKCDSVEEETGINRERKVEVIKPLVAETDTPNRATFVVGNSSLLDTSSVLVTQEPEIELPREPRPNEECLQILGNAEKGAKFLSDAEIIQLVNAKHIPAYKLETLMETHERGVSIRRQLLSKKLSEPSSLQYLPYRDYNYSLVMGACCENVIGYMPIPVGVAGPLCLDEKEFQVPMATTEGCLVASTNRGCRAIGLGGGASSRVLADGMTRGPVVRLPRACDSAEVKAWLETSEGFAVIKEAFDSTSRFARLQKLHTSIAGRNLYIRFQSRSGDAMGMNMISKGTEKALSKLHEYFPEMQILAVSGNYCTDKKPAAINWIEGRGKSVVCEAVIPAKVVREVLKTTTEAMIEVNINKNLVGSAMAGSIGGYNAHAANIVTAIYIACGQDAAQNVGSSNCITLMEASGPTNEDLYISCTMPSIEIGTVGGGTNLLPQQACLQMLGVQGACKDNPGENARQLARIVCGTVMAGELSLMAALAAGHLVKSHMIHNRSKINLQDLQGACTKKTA
Procedure: HMGCR activity was measured using GCoA Reductase Assay Kit (Sigma-Aldrich) according to the manufacturer's protocol. The assay is based on the spectrophotometric measurement of the decrease in absorbance at 340 nm, which represents the oxidation of NADPH by the catalytic subunit of HMGCR in the presence of the substrate HMG CoA.

[9] = system: HGPS MSCs; assay: Live cell imaging (cell density); format: cell-based, human; conditions: 7 days
Procedure: HGPS MSCs were seeded at 2500 cells per well in 96-well plates and cultivated during 7 days in presence of the drugs. Cell density was monitored using an IncuCyte ZOOM microscope (Essen Bioscience). Each value corresponds to the mean of cell densities of four pictures taken in three independent wells.

[10] = biological target: T2, FPPS (Homo sapiens, UniProt P14324); assay: Surface plasmon resonance on immobilized FPPS; format: binding
T2 sequence (P14324 1-419): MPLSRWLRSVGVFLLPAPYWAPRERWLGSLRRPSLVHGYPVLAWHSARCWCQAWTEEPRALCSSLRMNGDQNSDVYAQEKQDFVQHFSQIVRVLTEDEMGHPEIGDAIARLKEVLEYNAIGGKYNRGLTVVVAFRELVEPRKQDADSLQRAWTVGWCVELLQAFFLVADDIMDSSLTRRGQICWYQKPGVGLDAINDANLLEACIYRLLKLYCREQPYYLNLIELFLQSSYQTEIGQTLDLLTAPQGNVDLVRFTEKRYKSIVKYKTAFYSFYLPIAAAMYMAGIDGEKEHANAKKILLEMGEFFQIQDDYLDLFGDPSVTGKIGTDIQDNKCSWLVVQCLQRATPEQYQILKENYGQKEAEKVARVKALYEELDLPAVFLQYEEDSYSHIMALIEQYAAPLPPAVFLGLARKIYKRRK
Procedure: Surface plasmon resonance (SPR) was measured using a BIAcore 3000 instrument at 25° C. FPPS (2800 RU) was immobilized on flow cells of a CM5-chip. The running buffer was HBSEP pH 7.4 (20 mM Hepes, 150 mM NaCl, and 0.005% P20). Regeneration was performed with 10 mM glycine, pH 3.0. […] Data were evaluated using Scrubber2 (Biologic software) and BIAeval software (BIAcore).

[11] = biological target: T2, FPPS; assay: FPPS activity assay; format: biochemical; design: endogenous in cells; host or cells: HGPS MSCs (cell lysate); conditions: concentration inducing 50% of the maximum inhibiting effect of the compound
Procedure: (§2) Cell pellet of HGPS MSCs were resuspended in 25 mM Tris-HCl pH 7.4, 1 mM DTT, 1 mM MgCl2, 1 EDTA, 1 mM PMSF and centrifuged at 10,000×g for 10 min at 4° C. Protein content was determined using Lowry's method. Aliquots of cell lysate containing 100 μg of total proteins were incubated with tested substances at 37° C. for 30 min.
FPPS assay was carried out with some modifications of the procedure of Krisans et al. (Krisans et al., 1994, The Journal of biological chemistry VOL. 269: 14165-14169) and described by Gupta et al. (Gupta et al., 1999, Eur J Med Chem, VOL. 43: 2751-2767). Briefly, FPPS was assayed in 150 μL containing 25 mmol/L Hepes, pH=7, 2 mmol/L MgCl2, 1 mmol/L dithiothreitol, 5 mmol/L KF, 1% A noctyl-β-glucopyranoside, 3.3 μmol/L [4-14C] IPP (18 Ci/mmol), 3 μmol/L unlabeled IPP and 20 μmol/L geranyl diphosphate. Reactions were started by adding 40 μL of treated or untreated cell lysate and incubated for 45 min at 37° C. Reactions were stopped by the addition of 150 μL 2.5 mol/L HCl in 80% ethanol containing 100 μg/mL farnesol as a carrier. The samples were hydrolyzed for 30 min at 37° C. to convert the FPP to farnesol and neutralized by the addition of 150 μL of 10% NaOH. The reaction product (farnesol) was extracted into 1 mL of N-hexane and an aliquot (200 μL) of the organic phase was used for radioactivity counting. Parallel samples were assayed to evaluate the total and the nonspecific radioactivity. In all experiments, enzyme assays were carried out in triplicate.

[12] = biological target: T3, FT (Homo sapiens, UniProt P49354+P49356); assay: FT activity assay (Farnesyltransferase [3H] SPA); format: biochemical; conditions: concentration inducing 50% of the maximum inhibiting effect of the compound
T3 construct: Reactions were started by adding 40 μL of treated or untreated cell lysate; endogenous in cells; host or cells: HGPS MSCs (cell lysate)
Procedure: as §2
FT activity was determined by Famesyltransferase [3H] SPA enzyme assay (Amersham Life Science, Buckinghamshire, England). Briefly, FT activity was assayed in 20 μl of assay buffer containing 50 mmol/L Hepes, 30 mmol/L MgCl2, 20 mmol/L KCl and 5 mmol/L dithiothreitol, 20 μl of [3H]-FPP (12 pmol) and 20 μl of biotin lamin B. Reactions were started by adding 40 μL of treated or untreated cell lysate and incubated for 1 hour at 37° C. Reactions were stopped by the addition of 150 μL of stop reagent containing SPA bead and counted in a scintillation counter. FT activity was expressed as pmoles of incorporated [3H]-FPP into biotin lamin-B peptide per minute per milligram of total proteins (pmol/min/mg prot). Parallel samples were assayed to evaluate the total and the nonspecific radioactivity. In all experiments enzyme assays were carried out in triplicate.

Row | ATP content (energetic metabolism) [1] | IC50 (μM) HMGCR [8] | direct interaction with FPPS (SPR), in words [10] | Ka (1/M), association constant ([10]; SPR, BIAcore 3000, 25° C.) [M⁻¹] | Kd ([10]; SPR, BIAcore 3000, 25° C., read-out: Kd (M), equilibrium dissociation constant) [M] | IC50 [11] [µM] | IC50 [12] [µM] | Compound | rescue of nuclear shape abnormalities [2] | lamin A and progerin mRNA expression [3] | prelamin A level (Western blot) [4] | number of Ki-67 positive cells [5] | unfarnesylated form of HDJ2 [6] | rescue of premature osteogenic differentiation (alkaline phosphatase activity) [7] | cytostatic effect in long term live imaging cultures [9]
1 | increased ATP content |  |  |  |  |  |  | Cc1cccc(N(C)c2cc(N3CCN(C(=O)Cc4c(-c5ccccc5)[nH]c5ccccc45)CC3)ncn2)c1 [Di-AP1, 1-{4-[6-(Methyl-m-tolyl-amino)-pyrimidin-4-yl]-piperazin-1-yl}-2-(2-phenyl-1H-indol-3-yl)-ethanone] | not efficient | increased | increased | up to 65% | increase of the unfarnesylated form of the protein | not significantly different to those observed following FTI treatment | 
2 |  | No inhibition | confirmed the direct interactions | 5040 | 0.0002 | 1.82 | 9.32 | N#CC(c1ccncc1)c1cc(N2CCN(C(=O)c3cccs3)CC2)ncn1 (centres unmarked) [Mono-AP2, Pyridin-4-yl-{6-[4-(thiophene-2-carbonyl)-piperazin-1-yl]-pyrimidin-4-yl}-acetonitrile] | restoring HGPS MSCs nuclear shape defects at levels not significantly different from the FTI tipifarnib |  | increased |  | increase of the unfarnesylated form of the protein |  | less cytostatic than the FTI tipifarnib
